Common to all, as to assay: NCI tumour cell line growth inhibition, 48 h
The test system of test [1] is OVCAR-8.
Test [2] relates to UACC-257.
Test [3] relates to SNB-75.
Test [4] relates to MOLT-4.
For test [5], the system named is SK-MEL-28.
Test [6] deals with MDA-MB-435.
Test [7] concerns SK-MEL-5.
For test [8], the system named is CCRF-CEM.
Test [9] has as its system T47D.
Test [10] has as its system COLO 205.
Test [11] concerns NCI-H226.
The subject of test [12] is DU-145.
The test system of test [13] is RPMI-8226.
For test [14], the system named is HCT-15.
Test [15] concerns IGROV-1.
The test system of test [16] is NCI-H522.
The test system of test [17] is HL-60.
The subject of test [18] is SNB-19.
The test system of test [19] is HCT-116.
For test [20], the system named is SR.

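Each compound was tested at five concentrations against cells in 96-well plates for 48 hours. GI50 is the concentration that inhibits growth by half.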 The source made the active and inactive calls. Cut-off read from the data, not from the text of the source: active = GI50 up to about 1.1 µM and inactive = higher.

Consider `Cc1nc2ccc(NCCN(C)C)c3c(=O)c4ccccc4n1c23`, for which the GI50 in [1] is 0.914 µM (active); in test [2] it was 4.65 µM (inactive); in test [3], 3.5 µM (inactive); in [4], 0.348 µM (active); in [5], 8.22 µM (inactive); in [6] it was 2.09 µM (inactive). Further, the GI50 was 2.21 µM (inactive) in [7]; 1.22 µM (inactive) in test [8]; 12.2 µM (inactive) in test [9]; 1.17 µM (inactive) in [10]; 1.56 µM (inactive) in test [11]; 2.07 µM (inactive) in test [12]. For the same compound, the GI50 is 2.04 µM (inactive) in [13]; 1.25 µM in test [14]; 1.75 µM (inactive) in test [15]; 1.52 µM (inactive) in test [16]; 3.37 µM (inactive) in test [17]; 4.19 µM (inactive) in [18]. The GI50 in [19] was 0.851 µM (active); in test [20], 0.439 µM (active).
Consider `O=C1CC(/C=C/c2ccco2)=C(O)C1=O`, for which the GI50 in [1] was 13.8 µM (inactive); in test [2] it was 15.7 µM (inactive); in [3], 16 µM (inactive); in test [4], 14 µM (inactive); in test [5] it was 28.8 µM (inactive); in test [6], 16.4 µM (inactive). Moreover, the GI50 is 13.7 µM (inactive) in test [7]; 3 µM (inactive) in test [8]; 14.2 µM (inactive) in test [9]; 15.7 µM (inactive) in [10]; 22 µM (inactive) in test [11]; 16.2 µM (inactive) in test [12]. Besides, the GI50 is 13.2 µM (inactive) in [13]; 13.5 µM in test [14]; 10.7 µM (inactive) in [15]; 12.2 µM (inactive) in [16]; 33.7 µM (inactive) in test [17]; 14.8 µM (inactive) in test [18]. In addition, the GI50 was 13.6 µM (inactive) in test [19] and 6.05 µM (inactive) in test [20].
Regarding `CN1CN(c2ccccc2)C2(CCN(CCCCCCF)CC2)C1=O`, the GI50 in test [1] is > 100 µM (inactive); in test [2], 35.2 µM (inactive); in [3] it was > 100 µM (inactive); in test [4], 48.9 µM (inactive); in [5], > 100 µM (inactive); in test [6], > 100 µM (inactive). Besides, the GI50 in test [7] was 38.1 µM (inactive); in test [8] it was 37.9 µM (inactive); in test [9], 29.9 µM (inactive); in test [10], 21.1 µM (inactive); in test [11] it was > 100 µM (inactive); in [12], 44.1 µM (inactive). In addition, the GI50 in [13] is > 100 µM (inactive); in [14] it was 54.5 µM; in [15], 40.3 µM (inactive); in test [16] it was > 100 µM (inactive); in [17], > 100 µM (inactive); in test [18], 71.1 µM (inactive). In addition, the results for the GI50 in test [19] and in test [20] were 28.8 µM (inactive) and > 100 µM (inactive), respectively.
Regarding `CCC1(c2ccc(N)cc2)CCC(=O)NC1=O` (stereo not given) [AMINOGLUTETHIMIDE], the GI50 was 3270 µM (inactive) in test [1]; 2650 µM (inactive) in [2]; 1910 µM (inactive) in [3]; 1440 µM (inactive) in test [4]; 3610 µM (inactive) in [5]; > 2740 µM (inactive) in test [6]. The GI50 in [7] is 2090 µM (inactive); in test [8] it was 665 µM (inactive); in [9], 2070 µM (inactive); in test [10], 1470 µM (inactive); in test [11] it was 1880 µM (inactive); in test [12] it was 3030 µM (inactive). Moreover, the GI50 in test [13] was 2490 µM (inactive); in [14], 2380 µM; in test [15], 3450 µM (inactive); in test [16] it was 2640 µM (inactive); in [17], 1280 µM (inactive); in test [18], 3350 µM (inactive). Besides, the figures for the GI50 in [19] and in test [20] were 2620 µM (inactive) and > 3820 µM (inactive), respectively.
